Source: patent US6656970B2, “Method and compositions for solubilization of pentacyclic triterpenes” (Dabur Research Foundation, priority 2000, dated 2003)
≈ marks a conversion by molar mass, not a printed value.

How the values were obtained:
[1] = Clarity / precipitation on dilution of the composition with aqueous diluting fluid; type: physicochemical
Method: (§1) The solubility of betulinic acid and its derivatives was determined in various individual solvents. Based on the solubility of betulinic acid in these particular vehicles, it was then attempted to enhance the solubility of betulinic acid by mixing different solvents according to the principles of co-solvency (Spiegel and Noseworthy, 1963, Yalkowsky and Roseman, 1981). Different solvent systems were evaluated to arrive at a suitable relevant stock composition. The stock composition would then be diluted with a final solvent or intravenous solution to yield a working formulation of 0.001-40 mg/ml.
(§2) Several methods and compositions were evaluated for their ability to solubilize betulinic acid and its derivatives in water miscible, physiologically acceptable vehicles. The solvents that were tried included DMA, dimethylsulfoxide (DMSO), absolute ethanol, glycerin, polyethylene glycols (PEGs) and propylene glycol, in addition to the aqueous diluting fluids normal saline, and 2-25% dextrose in solution.
(§3) In the following examples one or more co-solvents with a solubilizers or a combination of (solubilizers) was added to keep the drug in solution after diluting with an aqueous intravenous diluting fluid.

[2] = Amount of drug dissolved in solvent/co-solvent/solubilizer compositions; type: physicochemical
Method: as §1, §2
A concentrated solution of betulinic acid or its derivatives was prepared by dissolving 50-200 mg of betulinic acid or its derivatives in 1 ml of DMA. The above stock solution was diluted with PEG (polyethylene glycol, MW 300) in a ratio of 1:4 to a concentration of 10-40 mg/ml.
as §3

human melanomas = conditions: cited from earlier work
[3] = tested on: cultured human melanoma cells; conditions: cited from earlier work
[4] = Solubility in individual solvents; type: physicochemical
Method: as §1, §2

[5] = Example 6: DMA 50% v/v, Tween 80 50% w/v

C=C(C)[C@@H]1CC[C@]2(C(=O)O)CC[C@]3(C)[C@H](CC[C@@H]4[C@@]5(C)CC[C@H](O)C(C)(C)[C@@H]5CC[C@]43C)[C@@H]12 [betulinic acid]
behaviour on dilution with the aqueous diluting fluid ([1]; Example 3: 50 mg drug, DMA 20% v/v, PEG 300 80% v/v, even at concentrations as low as 0.001-0.1 mg/ml): immediate precipitation
behaviour on dilution with the aqueous diluting fluid ([1]; Example 3: 200 mg drug, DMA 20% v/v, PEG 300 80% v/v): immediately precipitated out
behaviour on dilution with aqueous diluting fluid ([1]; Example 4: 50 mg drug, DMA 50% v/v, PEG 300 50% v/v, diluted with 2-25% dextrose or normal saline): gave a viscous solution which gels over time although there are no signs of any precipitation of drug
behaviour on dilution with aqueous diluting fluid [1, 5]: immediately precipitated out
time the drug solution remained clear on dilution ([1]; Example 7: Absolute ethanol 20-40% v/v, Tween 80 60-80% w/v, diluted with aqueous diluting fluid to 0.3-1.4 mg/ml): ≤ 3 h
behaviour on dilution with aqueous diluting fluid ([1]; Example 8: Absolute ethanol 65% v/v, Tween 80 5% w/v, PEG 300 30% v/v, diluted to 0.08-0.4 mg/ml): remained clear
behaviour on dilution with aqueous diluting fluid ([1]; Example 9: Absolute ethanol 35% v/v, Tween 80 15% w/v, PEG 300 50% v/v, diluted to 0.08 to 0.4 mg/ml): remained clear
behaviour on dilution with aqueous diluting fluid ([1]; Example 9 composition, diluted outside the range 0.08 to 0.4 mg/ml): immediate precipitation
time the composition remained clear without any precipitation on dilution ([1]; Example 16: DMA 20-50% v/v, PEG 300 20-40% v/v, Tween 80 5-30% w/v, diluted with aqueous diluting fluid to 0.1-10 mg/ml): more than 5 days
behaviour on dilution with an aqueous diluting fluid ([1]; Examples 10 and 11 compositions, at a lower concentration of 0.012-2 mg/ml): remains clear
behaviour on dilution with aqueous diluting fluid ([1]; Examples 12 and 13 compositions containing MYRJ 52, diluted to 0.1-1.0 mg/ml): precipitated out in a few hours
behaviour on dilution with the aqueous diluting fluid ([1]; Examples 14 and 15 compositions, only at lower dilutions (0.001-1 mg/ml)): remained soluble
drug concentration the composition could dissolve [2, 5]: ≤ 20000 µg/mL
drug concentration the composition could dissolve ([2]; Example 7: Absolute ethanol 20-40% v/v, Tween 80 60-80% w/v): ≤ 20000 µg/mL
drug concentration the composition could dissolve ([2]; Example 8: Absolute ethanol 65% v/v, Tween 80 5% w/v, PEG 300 30% v/v): up to 6 mg/ml
drug concentration the composition could dissolve ([2]; Example 9: Absolute ethanol 35% v/v, Tween 80 15% w/v, PEG 300 50% v/v): up to 4 mg/ml
drug concentration that could be dissolved in the compositions ([2]; Example 16: DMA 20-50% v/v, PEG 300 20-40% v/v, Tween 80 5-30% w/v): Up to 22 mg/ml
drug concentration the compositions could dissolve ([2]; Examples 12 and 13: DMA 20% v/v, MYRJ 52 20-30% w/v, Tween 20-50% w/v, with or without PEG 300 40% v/v): ≤ 20000 µg/mL
drug concentration the compositions could dissolve ([2]; Examples 14 and 15: DMA 20% v/v, Tween 80 20% w/v, PEG 300 55-57% v/v, Poloxamer 407 3% w/v or Lecithin 5% w/v): 2000 to 15000 µg/mL
solubility ([2]; organic solvent or mixture, Examples 10 and 11: DMA 10-20% v/v, Propylene glycol 10-20% v/v, Absolute ethanol 30-35% v/v, Tween 80 35-40% w/v, read-out: concentration range soluble in the system): 2000 to 15000 µg/mL
tumor growth (human melanomas; athymic mice carrying human melanomas): completely inhibited
toxicity (human melanomas; mouse, in vivo): without toxicity
cytotoxicity [3]: melanoma-specific cytotoxic agent
solubility ([4]; Absolute ethanol, organic solvent or mixture, Absolute ethanol, varies depending upon the derivative, read-out: SOLUBILITY): 3000 to 10000 µg/mL (≈ 6.57 to 21.9 mM)
solubility ([4]; Dimethylsulfoxide (DMSO), organic solvent or mixture, Dimethylsulfoxide (DMSO), read-out: SOLUBILITY): ≤ 100000 µg/mL
solubility ([4]; Glycerin): insoluble
solubility ([4]; N,N-dimethylacetamide (DMA), organic solvent or mixture, N,N Dimethylacetamide (DMA), read-out: SOLUBILITY): ≤ 250000 µg/mL
solubility ([4]; Polyethylene glycols (MW 200, 300, 400), organic solvent or mixture, Polyethylene glycols (MW 200, 300, 400), read-out: SOLUBILITY): < 5000 µg/mL
solubility ([4]; Propylene glycol, organic solvent or mixture, Propylene glycol, read-out: SOLUBILITY): < 5000 µg/mL
solubility ([4]; Water): insoluble
solubility ([4]; most of the aqueous solvents): insoluble
